According to patent US9040524B2, “Antifungal 5,6-dihydro-4H-pyrrolo[1,2-a][1,4]-benzodiazepines and 6H-pyrrolo[1,2-a][1,4]benzodiazepines substituted with bicycle benzene derivatives” (JANSSEN PHARMACEUTICA NV, priority 2010, dated 2015):

Columns and labels:
Type in all cases: cell-based
Sporothrix schenkii = experiment: Antifungal activity in vitro, resazurin growth inhibition screen: Sporothrix schenkii; settings: Sporothrix schenkii B62482; for IC50: read-out: Inf. A pIC50 (converted)
Description: (§1) The standard susceptibility screen was performed in 96-well plates (U-bottom, Greiner Bio-One). Serial dilutions (2-fold or 4-fold) of 20 mM compound stock solutions were made in 100% DMSO, followed by an intermediate dilution step in water. These serial dilutions (10 μl) were then spotted onto test-plates that could be stored in the dark at 4° C. for a maximum period of 2 weeks. An adequate broad dose-range was included with 64 μM as the highest in-test concentration. […] The different fungal species/isolates (Table 3a) were cryopreserved and 1/1000 diluted in medium just prior to use. A standard inoculum of 200 μl containing 10^3 colony-forming unit (cfu) was then added to each well. A positive control (100% growth=fungal culture without antifungal) and a negative control (0% growth=RPMI-MOPS medium) were included on each plate.

Candida parapsilosis = experiment: Antifungal activity in vitro, resazurin growth inhibition screen: Candida parapsilosis; settings: Candida parapsilosis B66126; for IC50: Lodderomyces parapsilosis, read-out: Inf. D pIC50 (converted)
Description: as §1

[1] = system: Trichophyton mentagrophytes; experiment: Antifungal activity in vitro, resazurin growth inhibition screen: Trichophyton mentagrophytes; settings: Trichophyton mentagrophytes B70554; for IC50: read-out: Inf. G pIC50 (converted)
Description: as §1

Cryptococcus neoformans = experiment: Antifungal activity in vitro, resazurin growth inhibition screen: Cryptococcus neoformans; settings: Cryptococcus neoformans B66663; for IC50: read-out: Inf. F pIC50 (converted)
Description: as §1

Microsporum canis = experiment: Antifungal activity in vitro, resazurin growth inhibition screen: Microsporum canis; settings: Microsporum canis B68128; for IC50: read-out: Inf. B pIC50 (converted)
Description: as §1

Trichophyton rubrum = experiment: Antifungal activity in vitro, resazurin growth inhibition screen: Trichophyton rubrum; settings: Trichophyton rubrum B68183; for IC50: read-out: Inf. C pIC50 (converted)
Description: as §1

Aspergillus fumigatus = experiment: Antifungal activity in vitro, resazurin growth inhibition screen: Aspergillus fumigatus; settings: Aspergillus fumigatus B42928; for IC50: read-out: Inf. E pIC50 (converted)
Description: as §1

Row | IC50 (Sporothrix schenkii) [µM] | IC50 (Candida parapsilosis) [µM] | IC50 [1] [µM] | IC50 (Cryptococcus neoformans) [µM] | IC50 (Microsporum canis) [µM] | IC50 (Trichophyton rubrum) [µM] | IC50 (Aspergillus fumigatus) [µM] | Structure (SMILES) | Inf. A pIC50 (Sporothrix schenkii) | Inf. D pIC50 (Candida parapsilosis) | Inf. G pIC50 [1] | Inf. F pIC50 (Cryptococcus neoformans) | Inf. B pIC50 (Microsporum canis) | Inf. C pIC50 (Trichophyton rubrum) | Inf. E pIC50 (Aspergillus fumigatus)
1 | – | – | – | – | – | – | – | Br.CCOc1cc2c(cc1C1NCc3c(Cl)cccc3-n3cccc31)OC(C)C2 (centres unmarked) [Compound 50, 7-chloro-4-(5-ethoxy-2,3-dihydro-2-methyl-6-benzofuranyl)-5,6-dihydro-4H-pyrrolo[1,2-a][1,4]benzodiazepine .HBr] | <4.19 | <4.19 | <4.19 | 4.74 | 4.92 | 5.52 | <4.19
2 | – | – | – | – | – | – | – | Cl.O=C1CCc2ccc(C3NCc4c(Cl)cccc4-n4cccc43)cc21 (centres unmarked) [Compound 52, 6-(7-chloro-5,6-dihydro-4H-pyrrolo[1,2-a][1,4]benzodiazepin-4-yl)-2,3-dihydro-1H-inden-1-one .HCl] | <4.19 | <4.19 | 4.31 | <4.19 | <4.80 | 4.55 | <4.19
3 | – | – | – | – | – | – | – | Br.Clc1ccc2c(c1)-n1cccc1C(c1ccc3c(c1)OCO3)NC2 (centres unmarked) [Compound 6, 4-(1,3-benzodioxol-5-yl)-9-chloro-5,6-dihydro-4H-pyrrolo[1,2-a][1,4]benzo-diazepine .HBr] | 4.21 | <4.19 | 4.50 | 5.10 | 5.00 | 5.15 | <4.19
4 | – | – | – | – | – | – | – | Clc1ccc2c(c1)-n1cccc1C(c1ccc3c(c1)CCCO3)=NC2 [Compound 42, 9-chloro-4-(3,4-dihydro-2H-1-benzopyran-6-yl)-6H-pyrrolo[1,2-a][1,4]benzo-diazepine] | 5.10 | 5.63 | <4.19 | 6.82 | 4.49 | <4.19 | <4.19
5 | 1.95 | 8.13 | 0.309 | 0.1 | 0.617 | 0.269 | 0.219 | FC1(F)CCc2cc(C3=NCc4ccc(Cl)cc4-n4cccc43)ccc2O1 [Compound 71, 9-chloro-4-(2,2-difluoro-3,4-dihydro-2H-1-benzopyran-6-yl)-6H-pyrrolo[1,2-a]-[1,4]benzodiazepine] | – | – | – | – | – | – | –
6 | – | – | – | – | – | – | – | Cl.Clc1cc(Cl)c2c(c1)CNC(c1ccc3c(c1)CCO3)c1cccn1-2 (centres unmarked) [Compound 34, 8,10-dichloro-4-(2,3-dihydro-5-benzofuranyl)-5,6-dihydro-4H-pyrrolo[1,2-a][1,4]-benzodiazepine .HCl] | <4.19 | <4.19 | 4.96 | 5.52 | 5.70 | 5.70 | <4.19
7 | 2.63 | 11 | 1.62 | 0.38 | 0.407 | 0.407 | 0.617 | FC1(F)CCc2cc(C3=NCc4cccc(Cl)c4-n4cccc43)ccc2O1 [Compound 72, 10-chloro-4-(2,2-difluoro-3,4-dihydro-2H-1-benzopyran-6-yl)-6H-pyrrolo[1,2-a]-[1,4]benzodiazepine] | – | – | – | – | – | – | –
8 | – | – | – | – | – | – | – | Cl.Clc1cc(Cl)c2c(c1)-n1cccc1C(c1ccc3c(c1)CCC3)NC2 (centres unmarked) [Compound 19, 7,9-dichloro-4-(2,3-dihydro-1H-inden-5-yl)-5,6-dihydro-4H-pyrrolo[1,2-a][1,4]-benzodiazepine .HCl] | <4.19 | <4.19 | 5.63 | 5.70 | 5.40 | 6.00 | 4.96
9 | – | – | – | – | – | – | – | Cl.Fc1cccc2c1CNC(c1ccc3c(c1)CCC(F)(F)O3)c1cccn1-2 (centres unmarked) [Compound 53, 4-(2,2-difluoro-3,4-dihydro-2H-1-benzopyran-6-yl)-7-fluoro-5,6-dihydro-4H-pyrrolo[1,2-a][1,4]benzodiazepine .HCl] | <4.19 | <4.19 | 4.49 | 4.87 | 4.49 | 4.50 | 4.97
10 | – | – | – | – | – | – | – | Clc1cccc2c1-n1cccc1C(c1ccc3c(c1)CCOC3)=NC2 [Compound 82, 10-chloro-4-(3,4-dihydro-1H-2-benzopyran-6-yl)-6H-pyrrolo[1,2-a][1,4]benzo-diazepine] | 5.06 | 4.77 | 5.56 | 5.26 | 5.69 | 5.95 | 5.56
11 | – | – | – | – | – | – | – | Cl.Clc1ccc(Cl)c2c1CNC(c1ccc3c(c1)OCC3)c1cccn1-2 (centres unmarked) [Compound 33, 7,10-dichloro-4-(2,3-dihydro-6-benzofuranyl)-5,6-dihydro-4H-pyrrolo[1,2-a][1,4]-benzodiazepine .HCl] | <4.19 | <4.19 | <4.19 | <4.19 | 5.52 | 5.15 | <4.19
12 | – | – | – | – | – | – | – | Cl.Clc1cccc2c1CNC(c1ccc3c(c1)OCC3)c1cccn1-2 (centres unmarked) [Compound 27, 7-chloro-4-(2,3-dihydro-6-benzofuranyl)-5,6-dihydro-4H-pyrrolo[1,2-a][1,4]benzo-diazepine .HCl] | <4.19 | <4.19 | 4.96 | <4.19 | 5.15 | 6.32 | <4.19
13 | 31.6 | 2.14 | 32.4 | 4.68 | 9.33 | 32.4 | > 64.6 | Fc1cc(F)c2c(c1)-n1cccc1C(c1ccc3c(c1)CCC(F)(F)O3)=NC2 [Compound 73, 4-(2,2-difluoro-3,4-dihydro-2H-1-benzopyran-6-yl)-7,9-difluoro-6H-pyrrolo[1,2-a]-[1,4]benzodiazepine] | – | – | – | – | – | – | –
14 | – | – | – | – | – | – | – | Clc1cccc2c1CNC(c1ccc3c(c1)OCO3)c1cccn1-2 (centres unmarked) [Compound 3, 4-(1,3-benzodioxol-5-yl)-7-chloro-5,6-dihydro-4H-pyrrolo[1,2-a][1,4]benzo-diazepine] | <4.19 | <4.19 | 4.71 | 4.30 | 4.91 | 4.47 | <4.19
15 | – | – | – | – | – | – | – | Fc1cccc2c1CN=C(c1ccc3c(c1)CCCO3)c1cccn1-2 [Compound 40, 4-(3,4-dihydro-2H-1-benzopyran-6-yl)-7-fluoro-6H-pyrrolo[1,2-a][1,4]benzo-diazepine] | <4.19 | 5.56 | <4.19 | 5.87 | 4.49 | <4.19 | <4.19
16 | – | – | – | – | – | – | – | Cl.Clc1ccc2c(c1Cl)CNC(c1ccc3c(c1)CCO3)c1cccn1-2 (centres unmarked) [Compound 30, 7,8-dichloro-4-(2,3-dihydro-5-benzofuranyl)-5,6-dihydro-4H-pyrrolo[1,2-a][1,4]-benzodiazepine .HCl] | <4.19 | <4.19 | 5.00 | 5.22 | 6.00 | 5.22 | <4.19
17 | 31.6 | 4.37 | > 64.6 | 8.13 | > 64.6 | 49 | 32.4 | O=C1CCCc2cc(C3=NCc4cccc(Cl)c4-n4cccc43)ccc21 [Compound 61, 6-(10-chloro-6H-pyrrolo[1,2-a][1,4]benzodiazepin-4-yl)-3,4-dihydro-1 (2H)-naphthalenone] | – | – | – | – | – | – | –
18 | – | – | – | – | – | – | – | Clc1ccc(Cl)c2c1CN=C(c1ccc3c(c1)OCC3)c1cccn1-2 [Compound 47, 7,10-dichloro-4-(2,3-dihydro-6-benzofuranyl)-6H-pyrrolo[1,2-a][1,4]benzo-diazepine] | <4.19 | <4.19 | <4.19 | <4.19 | 5.40 | 5.92 | <4.19
19 | – | – | – | – | – | – | – | Fc1cc(F)c2c(c1)-n1cccc1C(c1ccc3c(c1)CCCO3)=NC2 [Compound 46, 4-(3,4-dihydro-2H-1-benzopyran-6-yl)-7,9-difluoro-6H-pyrrolo[1,2-a][1,4]benzo-diazepine] | 4.49 | 5.79 | <4.19 | 5.49 | 4.48 | 4.44 | 4.49
20 | – | – | – | – | – | – | – | Cl.Clc1ccc(Cl)c2c1CNC(c1ccc3c(c1)CCC3)c1cccn1-2 (centres unmarked) [Compound 16, 7,10-dichloro-4-(2,3-dihydro-1H-inden-5-yl)-5,6-dihydro-4H-pyrrolo[1,2-a][1,4]-benzodiazepine .HCl] | <4.19 | <4.19 | 4.52 | <4.19 | 5.00 | 5.40 | <4.19
